Measured values as given in patent publication US4684664A, “Derivatives of β-(4-isocyano-1,2,3,4-diepoxycyclopentyl) acrylic acid” (Kureha Kagaku Kogyo Kabushiki Kaisha, priority 1984, dated 1987).
Values after ≈ are worked out from the molar mass of the structure shown.

Tests used:
Assay type in all cases: cell-based
[1] = tested on: Staphylococcus aureus FDA 209PJc-1; assay: Antibacterial activity, agar-dilution MIC, organism No. 1; details: Staphylococcus aureus, FDA209PJC1; Organism No. 1, bouillon-agar; read-out: Minimum Inhibitory Concentration
Summary of the method: (§1)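 Minimum inhibitory concentration determined on solid bouillon agar by the agar-dilution technique, with values stated as μg/ml.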

[2] = tested on: Staphylococcus aureus Terajima; assay: Antibacterial activity, agar-dilution MIC, organism No. 2; details: Staphylococcus aureus; Organism No. 2, bouillon-agar; read-out: Minimum Inhibitory Concentration
Summary of the method: as §1

[3] = tested on: Staphylococcus aureus MS 353; assay: Antibacterial activity, agar-dilution MIC, organism No. 3; details: Staphylococcus aureus, MS353; Organism No. 3, bouillon-agar; read-out: Minimum Inhibitory Concentration
Summary of the method: as §1

[4] = tested on: Streptococcus pyogenes Cook; assay: Antibacterial activity, agar-dilution MIC, organism No. 4; details: Streptococcus pyogenes; Organism No. 4, bouillon-agar; read-out: Minimum Inhibitory Concentration
Summary of the method: as §1

[5] = tested on: Escherichia coli NIHJ-JC-2; assay: Antibacterial activity, agar-dilution MIC, organism No. 5; details: Escherichia coli, NIHJJC2; Organism No. 5, bouillon-agar; read-out: Minimum Inhibitory Concentration
Summary of the method: as §1

[6] = tested on: Escherichia coli K12 C600 IAM 1264; assay: Antibacterial activity, agar-dilution MIC, organism No. 6; details: Escherichia coli, IAM1264; Organism No. 6, bouillon-agar; read-out: Minimum Inhibitory Concentration
Summary of the method: as §1

[7] = tested on: Klebsiella pneumoniae PCI-602; assay: Antibacterial activity, agar-dilution MIC, organism No. 7; details: Klebsiella pneumoniae, PCI602; Organism No. 7, bouillon-agar; read-out: Minimum Inhibitory Concentration
Summary of the method: as §1

[8] = tested on: Salmonella typhimurium IID 971; assay: Antibacterial activity, agar-dilution MIC, organism No. 8; details: Salmonella enterica; Organism No. 8, bouillon-agar; read-out: Minimum Inhibitory Concentration
Summary of the method: as §1

Salmonella typhi 901 = assay: Antibacterial activity, agar-dilution MIC, organism No. 9; details: Salmonella enterica, TYPHI, read-out: Minimum Inhibitory Concentration
Summary of the method: as §1

[9] = tested on: Salmonella paratyphi-A 1015; assay: Antibacterial activity, agar-dilution MIC, organism No. 10; details: Salmonella enterica, PARATYPHI, read-out: Minimum Inhibitory Concentration
Summary of the method: as §1

[10] = tested on: Salmonella shottmuelleri 8006; assay: Antibacterial activity, agar-dilution MIC, organism No. 11; details: Salmonella, 8006; Organism No. 11, bouillon-agar; read-out: Minimum Inhibitory Concentration
Summary of the method: as §1

[11] = tested on: Salmonella enteritidis G 14; assay: Antibacterial activity, agar-dilution MIC, organism No. 12; details: Salmonella enterica, ENTERITIDIS; Organism No. 12, bouillon-agar; read-out: Minimum Inhibitory Concentration
Summary of the method: as §1

[12] = tested on: Serratia marcescens IAM 1184; assay: Antibacterial activity, agar-dilution MIC, organism No. 13; details: Serratia marcescens, IAM1184; Organism No. 13, bouillon-agar; read-out: Minimum Inhibitory Concentration
Summary of the method: as §1

[13] = tested on: Bacillus subtilis ATCC 6633; assay: Antibacterial activity, agar-dilution MIC, organism No. 14; details: Bacillus subtilis, ATCC6633; Organism No. 14, bouillon-agar; read-out: Minimum Inhibitory Concentration
Summary of the method: as §1

[14] = tested on: Pseudomonas aeruginosa IFO 3445; assay: Antibacterial activity, agar-dilution MIC, organism No. 15; details: Pseudomonas aeruginosa, IFO3445; Organism No. 15, bouillon-agar; read-out: Minimum Inhibitory Concentration
Summary of the method: as §1

[15] = tested on: Pseudomonas aeruginosa NCTC 10490; assay: Antibacterial activity, agar-dilution MIC, organism No. 16; details: Pseudomonas aeruginosa, NCTC10490; Organism No. 16, bouillon-agar; read-out: Minimum Inhibitory Concentration
Summary of the method: as §1

[16] = tested on: Pseudomonas aeruginosa PAO 1; assay: Antibacterial activity, agar-dilution MIC, organism No. 17; details: Pseudomonas aeruginosa, PAO1; Organism No. 17, bouillon-agar; read-out: Minimum Inhibitory Concentration
Summary of the method: as §1

[17] = tested on: Proteus morganii IFO 3848; assay: Antibacterial activity, agar-dilution MIC, organism No. 18; details: Morganella morganii, IFO3848; Organism No. 18, bouillon-agar; read-out: Minimum Inhibitory Concentration
Summary of the method: as §1

[18] = tested on: Proteus mirabilis IFO 3849; assay: Antibacterial activity, agar-dilution MIC, organism No. 19; details: Proteus mirabilis, IFO3849; Organism No. 19, bouillon-agar; read-out: Minimum Inhibitory Concentration
Summary of the method: as §1

Proteus vulgaris OX-19 = assay: Antibacterial activity, agar-dilution MIC, organism No. 20; details: Proteus vulgaris, OX19; Organism No. 20, bouillon-agar; read-out: Minimum Inhibitory Concentration
Summary of the method: as §1

Proteus vulgaris HX-19 = assay: Antibacterial activity, agar-dilution MIC, organism No. 21; details: Proteus vulgaris, HX19; Organism No. 21, bouillon-agar; read-out: Minimum Inhibitory Concentration
Summary of the method: as §1

[19] = tested on: Proteus rettgeri IFO 3850; assay: Antibacterial activity, agar-dilution MIC, organism No. 22; details: Providencia rettgeri, IFO3850; Organism No. 22, bouillon-agar; read-out: Minimum Inhibitory Concentration
Summary of the method: as §1

[20] = tested on: Enterobacter aerogenes ATCC 13048; assay: Antibacterial activity, agar-dilution MIC, organism No. 23; details: Klebsiella aerogenes, ATCC13048; Organism No. 23, bouillon-agar; read-out: Minimum Inhibitory Concentration
Summary of the method: as §1

Enterobacter cloacae 963 = assay: Antibacterial activity, agar-dilution MIC, organism No. 24; details: Enterobacter cloacae, 963; Organism No. 24, bouillon-agar; read-out: Minimum Inhibitory Concentration
Summary of the method: as §1

[21] = tested on: Micrococcus luteus ATCC 9341; assay: Antibacterial activity, agar-dilution MIC, organism No. 25; details: Micrococcus luteus, ATCC9341; Organism No. 25, bouillon-agar; read-out: Minimum Inhibitory Concentration
Summary of the method: as §1

[22] = tested on: Streptococcus pyogenes IFO 3340; assay: Antibacterial activity, agar-dilution MIC, organism No. 26; details: Streptococcus pyogenes, IFO3340; Organism No. 26, bouillon-agar; read-out: Minimum Inhibitory Concentration
Summary of the method: as §1

[23] = tested on: Streptococcus faecium IFO 3826; assay: Antibacterial activity, agar-dilution MIC, organism No. 27; details: Enterococcus faecium, IFO3826; Organism No. 27, bouillon-agar; read-out: Minimum Inhibitory Concentration
Summary of the method: as §1

[24] = tested on: Mycoplasma pneumoniae IID817; assay: Antimycoplasmal activity, MIC by phenol red colour change, organism No. 28; details: Mycoplasma, IID817; Organism No. 28, PPLO broth + 1% glucose, 37° C.; read-out: Minimum Inhibitory Concentration (MIC)
Protocol: Mycoplasma pneumoniae IID817 was used as the test microorganism in a culture medium prepared by adding 1% of glucose to "PPLO broth (manufactured by Difco Co.) liquid culture medium" at 37° C. with phenol red as an indicator, thereby culturing the test microorganism.

[25] = tested on: Candida albicans IAM 4905; assay: Antifungal activity, agar-dilution MIC, organism No. 29; details: Candida albicans, IAM4905; Organism No. 29, bouillon-agar; read-out: Minimum Inhibitory Concentration
Summary of the method: as §1

[26] = tested on: Aspergillus niger IFO 6342; assay: Antifungal activity, agar-dilution MIC, organism No. 30; details: Aspergillus niger, IFO6342; Organism No. 30, bouillon-agar; read-out: Minimum Inhibitory Concentration
Summary of the method: as §1

SMILES: [C-]#[N+]C12CC3(/C=C/C(=O)Nc4ccc(C(C)=O)cc4)OC3C1O2 (stereo not drawn) [compound 80]
- MIC [1]: 0.39 µg/mL (≈ 1.26 µM)
- MIC [2]: 1.56 µg/mL (≈ 5.03 µM)
- MIC [3]: 0.78 µg/mL (≈ 2.51 µM)
- MIC [4]: 6.25 µg/mL (≈ 20.1 µM)
- MIC [5]: > 200 µg/mL
- MIC [6]: > 200 µg/mL
- MIC [7]: 1.56 µg/mL (≈ 5.03 µM)
- MIC [8]: 100 µg/mL (≈ 322 µM)
- MIC (Salmonella typhi 901): 12.5 µg/mL (≈ 40.3 µM)
- MIC [9]: 3.13 µg/mL (≈ 10.1 µM)
- MIC [10]: 3.13 µg/mL (≈ 10.1 µM)
- MIC [11]: 12.5 µg/mL (≈ 40.3 µM)
- MIC [12]: > 200 µg/mL
- MIC [13]: 6.25 µg/mL (≈ 20.1 µM)
- MIC [14]: > 200 µg/mL
- MIC [15]: > 200 µg/mL
- MIC [16]: > 200 µg/mL
- MIC [17]: 6.25 µg/mL (≈ 20.1 µM)
- MIC [18]: > 200 µg/mL
- MIC (Proteus vulgaris OX-19): 1.56 µg/mL (≈ 5.03 µM)
- MIC (Proteus vulgaris HX-19): 1.56 µg/mL (≈ 5.03 µM)
- MIC [19]: > 200 µg/mL
- MIC [20]: > 200 µg/mL
- MIC (Enterobacter cloacae 963): > 200 µg/mL
- MIC [21]: > 200 µg/mL
- MIC [22]: 3.13 µg/mL (≈ 10.1 µM)
- MIC [23]: 1.56 µg/mL (≈ 5.03 µM)
- MIC [24]: < 0.2 µg/mL
- MIC [25]: 0.39 µg/mL (≈ 1.26 µM)
- MIC [26]: 3.13 µg/mL (≈ 10.1 µM)

SMILES: [C-]#[N+]C12CC3(/C=C/C(=O)Nc4cccc(OC)c4)OC3C1O2 (stereo not drawn) [compound 54]
- MIC [1]: 0.39 µg/mL (≈ 1.31 µM)
- MIC [2]: 1.56 µg/mL (≈ 5.23 µM)
- MIC [3]: 0.2 µg/mL (≈ 0.67 µM)
- MIC [4]: 25 µg/mL (≈ 83.8 µM)
- MIC [5]: 50 µg/mL (≈ 168 µM)
- MIC [6]: 50 µg/mL (≈ 168 µM)
- MIC [7]: 0.2 µg/mL (≈ 0.67 µM)
- MIC [8]: 6.25 µg/mL (≈ 21 µM)
- MIC (Salmonella typhi 901): 3.13 µg/mL (≈ 10.5 µM)
- MIC [9]: 0.78 µg/mL (≈ 2.61 µM)
- MIC [10]: 0.39 µg/mL (≈ 1.31 µM)
- MIC [11]: 3.13 µg/mL (≈ 10.5 µM)
- MIC [12]: 100 µg/mL (≈ 335 µM)
- MIC [13]: 3.13 µg/mL (≈ 10.5 µM)
- MIC [14]: > 200 µg/mL
- MIC [15]: > 200 µg/mL
- MIC [16]: > 200 µg/mL
- MIC [17]: 0.39 µg/mL (≈ 1.31 µM)
- MIC [18]: > 200 µg/mL
- MIC (Proteus vulgaris OX-19): 0.39 µg/mL (≈ 1.31 µM)
- MIC (Proteus vulgaris HX-19): 0.3 µg/mL (≈ 1.01 µM)
- MIC [19]: 6.25 µg/mL (≈ 21 µM)
- MIC [20]: > 200 µg/mL
- MIC (Enterobacter cloacae 963): > 200 µg/mL
- MIC [21]: 0.05 µg/mL (≈ 0.168 µM)
- MIC [22]: 0.39 µg/mL (≈ 1.31 µM)
- MIC [23]: 25 µg/mL (≈ 83.8 µM)
- MIC [24]: < 0.2 µg/mL
- MIC [25]: 0.79 µg/mL (≈ 2.65 µM)
- MIC [26]: 1.56 µg/mL (≈ 5.23 µM)
